Consider three compounds from patent publication US7332290B2, “Dectection of AMACR cancer markers in urine” (The Regents of the University of Michigan, priority 2001, dated 2008).

The structures appear in SMILES notation. Peptide text beside a SMILES is read from it. * marks the point of attachment. Cbz = O=C(OCc1ccccc1)*; CH2F = FC*

What all share (assay type): cell-based
One test has as its system LNCaP cells. The experiment in a line: Androgen/anti-androgen treatment of LNCaP cells, Western blot of AMACR and PSA. To be noted: LNCaP cells exposed to synthetic androgen, 1 nM, 24 and 48 h. As for the experimental part:
Prostate cell lines (RWPE-1, LNCaP, PC3 and DU145) were obtained from the American Tissue Culture Collection. Cells were maintained in RPMI-1640 with 8% decomplemented fetal bovine serum, 0.1% glutamine and 0.1% penicillin and streptomycin (BioWhittaker, Walkersville, Md.). Cells were grown to 75% confluence and then treated for 24 and 48 with the antiandrogen bicalutamide (CASODEX, Zeneca Pharmaceuticals, Plankstadt, Germany) at a final concentration of 20 μM or with methyltrienolone (synthetic androgen (R1881); NEN, Life Science Products, Boston, Mass.) at a final concentration of 1 nM. Cells were harvested and lysed in NP-40 lysis buffer containing 50 mmol/L Tris-HCl, pH 7.4, 1% Nonidet P-40 (Sigma, St. Louis, Mo.) and complete proteinase inhibitor cocktail (Roche, Ind., USA). 15 μg of protein extracts were mixed with SDS sample buffer and electrophoresed onto a 10% SDS-polyacrylamide gel under reducing conditions. After transferring, the membranes (Amersham Pharmacia Biotech, Piscataway, N.J.) were incubated for 1 hour in blocking buffer (Tris-buffered saline with 0.1% Tween and 5% nonfat dry milk). The AMACR antibody was applied at 1:10.000 diluted blocking buffer overnight at 4° C. […]
A general note: Immunoblotting shows a protein as a band on a membrane.

The subject of another test is HDAC activity. In words: DNA microarray of EZH2-transfected cells, EZH2-mediated gene silencing. The text has this:
Other molecules have been similarly tested with this approach. Cells were transfected with different EZH2 constructs and transfection efficiency was monitored by beta-galactosidase assay and was approximately 30-50%. EZH2.SET mutant expressing samples were compared to EZH2 expressing samples using the SAM analysis package (Tusher et al., PNAS 98:5116 [2001]). Data was pre-processed by multiplication by a normalization factor to adjust the aggregate ratio of medians to one, log base 2 transformed and median centered each array, individually. This pre-processed data was divided into 2 groups for comparison using a two-class, unpaired t-test. […] These 161 genes were supplemented by the values for EZH2 and then analyzed using Cluster implementing average linkage hierarchical clustering of genes. […]
PcG proteins have been proposed to mediate their functions by repression of target genes (Laible et al., supra; Jacobs et al., Semin Cell Dev. Biol. 10:227 [1999]). To begin to test this hypothesis, RWPE prostate cells were transiently transfected with wild-type EZH2 and global gene expression alterations were monitored using DNA microarrays. […]

The test system of the next test is prostate cells. In words: WST-1 cell proliferation assay after siRNA transfection. To be noted: WST-1, caspase inhibitor added to EZH2 siRNA treated cells. As for the experimental part:
21-nucleotide sense and antisense RNA oligonucleotides were chemically synthesized (Dharmacon Research Inc.) and annealed to form duplexes. The siRNA employed in the study were targeted to the region corresponding from 85 to 106 of the reported human EZH2 (NM004456). Control siRNA duplexes targeted luciferase, lamin and AMACR (NM014324). The human transformed prostate cell line RWPE (Webber et al., Carcinogenesis 18:1225 [1997]) and PC3 were plated at 2×10^5 cells per well in a 12 well plate (for immunoblot analysis, cell counts, and fluorescence activated cell sorting (FACS) analysis) and 1.5×10^4 cell per well in a 96 well plate (for WST-1 proliferation assays). Twelve hours after plating, the cells were transfected with 60 picomoles of siRNA duplex, sense or antisense oligonucleotides (targeting EZH2) using oligofectamine (Invitrogen). […] Cell viability was assessed 60 hours after the initial transfection.
Cell proliferation was determined with the colorimetric assay of cell viability, based on the cleavage of tetrazolium salt WST-1 by mitochondrial dehydrogenases as per manufacturers instructions (Roche, Inc.). The absorbance of the formazan dye formed, which directly correlates with the number of metabolically active cells in the culture, was measured at 450 nm (Bio-Tek instruments), an hour after the addition of the reagent. […]
(Tetrazolium dyes change colour on reduction, which living cells bring about.)

As for `C[C@]1(O)CC[C@H]2[C@@H]3CCC4=CC(=O)CCC4=C3C=C[C@@]21C` [R1881, methyltrienolone], in the test with LNCaP cells, the AMACR expression entry is listed as “no increase in AMACR expression”.
As for `CC(/C=C/C(=O)NO)=C\[C@@H](C)C(=O)c1ccc(N(C)C)cc1` [trichostatin A], in the test on HDAC activity, the “effect on EZH2-mediated gene silencing” value is given as “completely abrogated the effects of EZH2”.
Take `COC(=O)C[C@H](NC(=O)[C@H](C)NC(=O)[C@@H](NC(=O)OCc1ccccc1)C(C)C)C(=O)CF` [z-VAD-fmk] (Cbz-Val-Ala-Asp(OMe)-CH2F): the “attenuation of EZH2 siRNA induced inhibition of cell proliferation” value in the test on prostate cells is recorded as “failed to attenuate”.
